Assay results: patent US6767738B1, “Method of isolating adult mammalian CNS-derived progenitor stem cells using density gradient centrifugation” (The Salk Institute for Biological Studies, priority 1999, dated 2004)

Assays:
[1] = tested on: optic nerve low-buoyancy cells; assay: Neuron generation from optic nerve low-buoyancy cells; type: cell-based, rat; conditions: 14 days high FGF-2, then 14 days differentiation; mean +/- s.e.m., n=5
From the text: Tissue dissection: Three areas were dissected from adult rat brains as follows. Rats (170-190 g Fisher 344 males or females, Harlan) were deeply anesthetized with a mixture of ketamine, xylazine, and acepromazine. Animals were decapitated and whole brains removed. First, ˜1.5 mm of each optic nerve were harvested rostral to, but not including, the optic chiasma. The brain was then bisected longitudinally and each hippocampal lobe separated from the overlaying cortical white matter using the natural separation line along the alveus hippocampus. The white matter of the fimbria and subiculum was removed as much as possible. Some white matter remained. Finally, a 1.5 mm wide cortical ribbon containing parietal and frontal segments was dissected longitudinally, proximal to the central fissure. The pial and callosal surfaces were trimmed from each cortical ribbon to remove a majority of the meninges and white matter. […]
To determine if there were progenitors in the optic nerve with a latent ability to generate neurons, optic nerve was harvested, dissociated and fractioned. […] On day 28, cultures were calculated for the presence of neurons (β Tubulin) and those neurons present were scored for BrdU-immunoreactivity. Although many glia rapidly differentiated in the primary culture, clusters of proliferative precursor-like calls were readily detected. […]

[2] = tested on: low buoyancy fraction cells from hippocampus or cortex; assay: Proliferation of low buoyancy hippocampus or cortex cells in growth medium; type: cell-based, rat; conditions: 20 ng/ml FGF-2, after 10 days
From the text: Tissue dissociation and fractionation: Tissues were finely minced and digested in a solution of papain (2.5 U/ml, Worthington), DNAse (250 U/ml, Worthington), and neutral protease (1 U/ml Dispase, Boehringer) dissolved in Hanks balanced salt solution, as described in Palmer T D, Ray J, Gage F H (1995), FGF-2-Responsive Neuronal Progenitors Reside in Proliferative and Quiescent Regions of the Adult Rodent Brain. Mol Cell Neurosci 6:474-486; and Gage F H, Coates P W, Palmer T D, Kuhn H G, Fisher L J, Suhonen J O, Peterson D A, Suhr S T, Ray J (1995), Survival and differentiation of adult neuronal progenitor cells transplanted to the adult brain. Proc Natl Acad Sci USA 92:11879-11883. Cells and tissue fragments were washed 3 times with Dulbecco's Modified Eagles Medium (DMEM) containing 10% […] bovine serum (defined FBS, Hyclone). Whole digested tissue was then suspended in DMEM 10% FBS, filtered through a sterile 107 μm nylon mesh and thoroughly mixed with an equal volume of PERCOLL™ (polyvinylpyrrolidone-coated silica colloids) solution. […]
Although BrdU-labeled cells fractionated to the low buoyancy population, most of the isolated cells were unlabeled, consistent with the isolation of immature, yet relatively quiescent precursors. […] Cell division was monitored by counting cells and by treating replicate cultures with BrdU at different times post plating. […]

## FGF-2: basic fibroblast growth factor, human recombinant, prepared in E. coli
[1]
  β Tubulin-positive neurons, of the total population: 0.8% +/− 0.3
[2]
  cells dividing in a given 24-hour period: roughly 85%
  cells labeled following a 48 hour exposure to BrdU: > 99%
